Measured values reported in patent US20040028631A1, “Cosmetic formulations” (priority 2000, published 2004).
Read-outs that look alike come from different tables or passages of the source.

Tests used:
[1] = Optimum concentration (substance data tables; stabilizing effect)
Excerpt: With respect to the stabilizing effect of optically active DIP it is most important that the substance is present in the form of potassium salt.

proteins = test: Protection against thermally induced denaturation of proteins; format: biochemical
Excerpt: Little is known at the present time about the effect of DIP in general. This mainly due to the fact that only very little of this compound is available.

Solubility in water = format: physicochemical
[2] = Chemical, physical, pH and light stability; format: physicochemical
Water binding capability = format: physicochemical
Excerpt: Moreover, the compound is thus of interest for the regulation and balancing of the skin's moisture characteristics. This is at least of additional advantage when the compound is used as a cosmetic agent.

model proteins = test: Protection of model proteins; format: biochemical; conditions: protecting model proteins
Protocol: Application related examinations were conducted with di-glycerol phosphate (DGP) aimed at protecting model proteins. As a penetration intensifier di-glycerol phosphate moreover ensures that these macro-molecules are also transported through several skin layers until they have reached their target destination.

[3] = Biocompatibility / allergenic potential

Row | Structure (SMILES) | Optimum concentration [1] [mM] | protective effect in respect of the thermally induced denaturation of proteins (proteins; first experiments) | protective effect in comparison with other compatible solutes (proteins; thermally induced denaturation of proteins) | solubility in water (Solubility in water) | chemical and physical stability [2] | chemical and physical stability ([2]; listed as di-myo-inositol phosphate) | capability of binding water (Water binding capability) | protective potential compared with glycerine (model proteins) | biocompatibility [3]
1 | O=P(O)(O[C@@H]1[C@H](O)[C@H](O)[C@@H](O)[C@H](O)[C@H]1O)O[C@@H]1[C@@H](O)[C@H](O)[C@@H](O)[C@H](O)[C@@H]1O [DIP, di-myo-inositol phosphate] | 250 to 400 | excellent | far and decidedly better | Excellent | High | great stability | highly capable of binding water |  | 
2 | O=P(O)(OCC(O)CO)OCC(O)CO (stereo not shown) [DGP, di-glycerol phosphate] | 100 to 200 |  |  | Excellent | High |  | highly capable of binding water | by far better protective potential | High
